Measured values reported in PubChem BioAssay (NCI).
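Cells were grown in 96-well plates and exposed to each compound for 48 hours at five concentrations; endpoints were interpolated linearly between bracketing concentrations, or set to the highest concentration if not reached. GI50: concentration for 50% inhibition of growth. TGI is the concentration that stops growth completely.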

Tests used:
Test in all cases: DTP human tumour cell line panel, 48 h
786-0 renal = tested on: 786-0 renal
A498 renal = tested on: A498 renal
A549 NSCLC = tested on: A549 NSCLC
ACHN renal = tested on: ACHN renal
BT-549 breast = tested on: BT-549 breast
CAKI-1 renal = tested on: CAKI-1 renal
CCRF-CEM leukemia = tested on: CCRF-CEM leukemia
COLO 205 colon = tested on: COLO 205 colon
DU-145 prostate = tested on: DU-145 prostate
EKVX NSCLC = tested on: EKVX NSCLC
HCC-2998 colon = tested on: HCC-2998 colon
HCT-116 colon = tested on: HCT-116 colon
HCT-15 colon = tested on: HCT-15 colon
HL-60(TB) leukemia = tested on: HL-60(TB) leukemia
HOP-62 NSCLC = tested on: HOP-62 NSCLC
HOP-92 NSCLC = tested on: HOP-92 NSCLC
HS 578T breast = tested on: HS 578T breast
HT29 colon = tested on: HT29 colon
IGROV1 ovarian = tested on: IGROV1 ovarian
K-562 leukemia = tested on: K-562 leukemia
KM12 colon = tested on: KM12 colon
LOX IMVI melanoma = tested on: LOX IMVI melanoma
M14 melanoma = tested on: M14 melanoma
MALME-3M melanoma = tested on: MALME-3M melanoma
MCF7 breast = tested on: MCF7 breast
MDA-MB-231 breast = tested on: MDA-MB-231 breast
MDA-MB-435 = tested on: MDA-MB-435
MOLT-4 leukemia = tested on: MOLT-4 leukemia
NCI-H226 lung = tested on: NCI-H226 lung
NCI-H23 lung = tested on: NCI-H23 lung
NCI-H460 lung = tested on: NCI-H460 lung
NCI-H522 lung = tested on: NCI-H522 lung
NCI/ADR-RES ovarian = tested on: NCI/ADR-RES ovarian
OVCAR-3 ovarian = tested on: OVCAR-3 ovarian
OVCAR-4 ovarian = tested on: OVCAR-4 ovarian
OVCAR-5 ovarian = tested on: OVCAR-5 ovarian
OVCAR-8 ovarian = tested on: OVCAR-8 ovarian
PC-3 prostate = tested on: PC-3 prostate
RPMI-8226 leukemia = tested on: RPMI-8226 leukemia
RXF 393 renal = tested on: RXF 393 renal
SF-268 CNS = tested on: SF-268 CNS
SF-295 CNS = tested on: SF-295 CNS
SF-539 CNS = tested on: SF-539 CNS
SK-MEL-2 melanoma = tested on: SK-MEL-2 melanoma
SK-MEL-28 melanoma = tested on: SK-MEL-28 melanoma
SK-MEL-5 melanoma = tested on: SK-MEL-5 melanoma
SK-OV-3 ovarian = tested on: SK-OV-3 ovarian
SN12C renal = tested on: SN12C renal
SNB-19 CNS = tested on: SNB-19 CNS
SNB-75 CNS = tested on: SNB-75 CNS
SR leukemia = tested on: SR leukemia
SW-620 colon = tested on: SW-620 colon
T-47D breast = tested on: T-47D breast
TK-10 renal = tested on: TK-10 renal
U251 CNS = tested on: U251 CNS
UACC-257 melanoma = tested on: UACC-257 melanoma
UACC-62 melanoma = tested on: UACC-62 melanoma
UO-31 renal = tested on: UO-31 renal

Fc1cnc(NC2CC2)nc1-c1cnc2ccc(N3CCOCC3)cn12
GI50 (786-0 renal): 322 nM | TGI (786-0 renal): 22800 nM | GI50 (A498 renal): 168 nM | TGI (A498 renal): 430 nM | GI50 (A549 NSCLC): 292 nM | TGI (A549 NSCLC): > 64300 nM | GI50 (ACHN renal): 160 nM | TGI (ACHN renal): 10600 nM | GI50 (BT-549 breast): 230 nM | TGI (BT-549 breast): 3350 nM | GI50 (CAKI-1 renal): 122 nM | TGI (CAKI-1 renal): 12500 nM | GI50 (CCRF-CEM leukemia): 325 nM | TGI (CCRF-CEM leukemia): > 100000 nM | GI50 (COLO 205 colon): 144 nM | TGI (COLO 205 colon): 428 nM | GI50 (DU-145 prostate): 323 nM | TGI (DU-145 prostate): > 60900 nM | GI50 (EKVX NSCLC): 297 nM | TGI (EKVX NSCLC): 3460 nM | GI50 (HCC-2998 colon): 305 nM | TGI (HCC-2998 colon): 2620 nM | GI50 (HCT-116 colon): 160 nM | TGI (HCT-116 colon): > 56300 nM | GI50 (HCT-15 colon): 266 nM | TGI (HCT-15 colon): 14500 nM | GI50 (HL-60(TB) leukemia): 304 nM | TGI (HL-60(TB) leukemia): 1010 nM | GI50 (HOP-62 NSCLC): 306 nM | TGI (HOP-62 NSCLC): > 44800 nM | GI50 (HOP-92 NSCLC): 116 nM | TGI (HOP-92 NSCLC): 461 nM | GI50 (HS 578T breast): 265 nM | TGI (HS 578T breast): 2460 nM | GI50 (HT29 colon): 251 nM | TGI (HT29 colon): > 58300 nM | GI50 (IGROV1 ovarian): 268 nM | TGI (IGROV1 ovarian): 17500 nM | GI50 (K-562 leukemia): 441 nM | TGI (K-562 leukemia): > 100000 nM | GI50 (KM12 colon): 237 nM | TGI (KM12 colon): 3970 nM | GI50 (LOX IMVI melanoma): 90 nM | TGI (LOX IMVI melanoma): 12500 nM | GI50 (M14 melanoma): 279 nM | TGI (M14 melanoma): 1010 nM | GI50 (MALME-3M melanoma): 340 nM | TGI (MALME-3M melanoma): 1060 nM | GI50 (MCF7 breast): 272 nM | TGI (MCF7 breast): 6910 nM | GI50 (MDA-MB-231 breast): 203 nM | TGI (MDA-MB-231 breast): 1680 nM | GI50 (MDA-MB-435): 272 nM | TGI (MDA-MB-435): 992 nM | GI50 (MOLT-4 leukemia): 346 nM | GI50 (NCI-H226 lung): 201 nM | TGI (NCI-H226 lung): 1390 nM | GI50 (NCI-H23 lung): 242 nM | TGI (NCI-H23 lung): 957 nM | GI50 (NCI-H460 lung): 291 nM | TGI (NCI-H460 lung): 10200 nM | GI50 (NCI-H522 lung): 374 nM | TGI (NCI-H522 lung): 6110 nM | GI50 (NCI/ADR-RES ovarian): 276 nM | TGI (NCI/ADR-RES ovarian): 4700 nM | GI50 (OVCAR-3 ovarian): 258 nM | TGI (OVCAR-3 ovarian): > 32600 nM | GI50 (OVCAR-4 ovarian): 306 nM | TGI (OVCAR-4 ovarian): 3060 nM | GI50 (OVCAR-5 ovarian): 188 nM | TGI (OVCAR-5 ovarian): 3130 nM | GI50 (OVCAR-8 ovarian): 284 nM | TGI (OVCAR-8 ovarian): > 73900 nM | GI50 (PC-3 prostate): 276 nM | TGI (PC-3 prostate): 8600 nM | GI50 (RPMI-8226 leukemia): 292 nM | TGI (RPMI-8226 leukemia): 1710 nM | GI50 (RXF 393 renal): 93.2 nM | TGI (RXF 393 renal): 303 nM | GI50 (SF-268 CNS): 296 nM | TGI (SF-268 CNS): 6850 nM | GI50 (SF-295 CNS): 299 nM | TGI (SF-295 CNS): 12100 nM | GI50 (SF-539 CNS): 164 nM | TGI (SF-539 CNS): 538 nM | GI50 (SK-MEL-2 melanoma): 218 nM | TGI (SK-MEL-2 melanoma): 641 nM | GI50 (SK-MEL-28 melanoma): 252 nM | TGI (SK-MEL-28 melanoma): 1270 nM | GI50 (SK-MEL-5 melanoma): 231 nM | TGI (SK-MEL-5 melanoma): 706 nM | GI50 (SK-OV-3 ovarian): 781 nM | TGI (SK-OV-3 ovarian): 81900 nM | GI50 (SN12C renal): 242 nM | TGI (SN12C renal): 5570 nM | GI50 (SNB-19 CNS): 290 nM | TGI (SNB-19 CNS): 17700 nM | GI50 (SNB-75 CNS): 158 nM | TGI (SNB-75 CNS): 475 nM | GI50 (SR leukemia): 128 nM | GI50 (SW-620 colon): 292 nM | TGI (SW-620 colon): 12400 nM | GI50 (T-47D breast): 299 nM | TGI (T-47D breast): 18600 nM | GI50 (TK-10 renal): 357 nM | TGI (TK-10 renal): 54200 nM | GI50 (U251 CNS): 271 nM | TGI (U251 CNS): > 42400 nM | GI50 (UACC-257 melanoma): 380 nM | TGI (UACC-257 melanoma): 11200 nM | GI50 (UACC-62 melanoma): 200 nM | TGI (UACC-62 melanoma): 699 nM | GI50 (UO-31 renal): 282 nM | TGI (UO-31 renal): 11100 nM
